In PubChem BioAssay AID248 (DTP/NCI, 2004):
Where “and” joins values, the source holds several entries; their conditions need not be identical. Equal entries are not always repeated. Toxic doses and inconclusive results are not listed. No stated cut-off is given here; in the data, active means T/C of 150% or more; inactive means T/C below 125%. Peptide text beside a SMILES is read from it. * marks the point of attachment. Cbz = O=C(OCc1ccccc1)*

Tested on: L1210 leukemia ip in BDF1 mice, survival T/C
Assay: NCI In Vivo Anticancer Drug Screen. Data for tumor model L1210 Leukemia (intraperitoneal) in B6D2F1 (BDF1) mice
Details: endpoint: mean survival time, higher = longer survival
Summary of the method: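 Ratio derived from survival: compound-dosed mice over vehicle-dosed mice, all bearing a transplantable tumor.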

[1] = dose: 100.0 mg/kg/injection, schedule: Q01DX009 (ip), vehicle: saline with Tween-80
[2] = dose: 200.0 mg/kg/injection, schedule: Q01DX009 (ip), vehicle: saline with Tween-80
[3] = dose: 100.0 mg/kg/injection, schedule: Q01DX009 (ip), vehicle: Klucel (hydroxypropylcellulose) (HPC)
[4] = dose: 100.0 mg/kg/injection, schedule: Q04DX003 (ip), vehicle: Klucel (hydroxypropylcellulose) (HPC)
[5] = dose: 200.0 mg/kg/injection, schedule: Q01DX009 (ip), vehicle: Klucel (hydroxypropylcellulose) (HPC)
[6] = dose: 200.0 mg/kg/injection, schedule: Q04DX003 (ip), vehicle: Klucel (hydroxypropylcellulose) (HPC)
[7] = dose: 400.0 mg/kg/injection, schedule: Q04DX003 (ip), vehicle: Klucel (hydroxypropylcellulose) (HPC)
[8] = dose: 100.0 mg/kg/injection, schedule: Q01DX001 (ip), vehicle: carboxymethylcellulose (CMC)
[9] = dose: 200.0 mg/kg/injection, schedule: Q01DX001 (ip), vehicle: carboxymethylcellulose (CMC)
[10] = dose: 400.0 mg/kg/injection, schedule: Q01DX001 (ip), vehicle: carboxymethylcellulose (CMC)
[11] = dose: 100.0 mg/kg/injection, schedule: Q04DX002 (ip), vehicle: saline
[12] = dose: 200.0 mg/kg/injection, schedule: Q04DX002 (ip), vehicle: saline
[13] = dose: 400.0 mg/kg/injection, schedule: Q04DX002 (ip), vehicle: saline
[14] = dose: 50.0 mg/kg/injection, schedule: Q01DX009 (ip), vehicle: saline
[15] = dose: 100.0 mg/kg/injection, schedule: Q04DX003 (ip), vehicle: saline
[16] = dose: 100.0 mg/kg/injection, schedule: Q01DX001 (ip), vehicle: saline
[17] = dose: 200.0 mg/kg/injection, schedule: Q01DX001 (ip), vehicle: saline
[18] = dose: 100.0 mg/kg/injection, schedule: Q04DX002 (ip), vehicle: saline with Tween-80
[19] = dose: 100.0 mg/kg/injection, schedule: Q04DX003 (ip), vehicle: saline with Tween-80
[20] = dose: 200.0 mg/kg/injection, schedule: Q04DX002 (ip), vehicle: saline with Tween-80
[21] = dose: 200.0 mg/kg/injection, schedule: Q04DX003 (ip), vehicle: saline with Tween-80
[22] = dose: 400.0 mg/kg/injection, schedule: Q04DX003 (ip), vehicle: saline with Tween-80

Measured: T/C

Oc1ccc(CCNCc2ccc3c(c2)OCO3)cc1
inactive: dose: 100.0 mg/kg/injection, schedule: Q01DX001 (ip), vehicle: Klucel (hydroxypropylcellulose) (HPC) 88 % of control | dose: 200.0 mg/kg/injection, schedule: Q01DX001 (ip), vehicle: Klucel (hydroxypropylcellulose) (HPC) 88 % of control | dose: 400.0 mg/kg/injection, schedule: Q01DX001 (ip), vehicle: Klucel (hydroxypropylcellulose) (HPC) 88 % of control

C=CCc1ccccc1OC
inactive: [1] 102 % of control | [2] 95 % of control

COCC(=O)CC(C)=O
inactive: [3] 98 % of control | [4] 100 % of control | [5] 106 % of control | [6] 95 % of control | dose: 400.0 mg/kg/injection, schedule: Q01DX009 (ip), vehicle: Klucel (hydroxypropylcellulose) (HPC) 101 % of control | [7] 101 % of control

CSc1ccc(OC(=O)Oc2ccc(SC)c(C)c2)cc1C
inactive: [8] 92 % of control | [9] 92 % of control | [10] 97 % of control

CS(=O)(=O)OCCNc1ccc([N+](=O)[O-])cc1
inactive: dose: 1.0 mg/kg/injection, schedule: Q01DX001 (ip), vehicle: saline 101 % of control | dose: 2.0 mg/kg/injection, schedule: Q01DX001 (ip), vehicle: saline 101 % of control | dose: 4.0 mg/kg/injection, schedule: Q01DX001 (ip), vehicle: saline 98 % of control | dose: 8.0 mg/kg/injection, schedule: Q01DX001 (ip), vehicle: saline 104 % of control | dose: 38.0 mg/kg/injection, schedule: Q01DX015 (ip), vehicle: saline 98 % of control | dose: 57.0 mg/kg/injection, schedule: Q01DX015 (ip), vehicle: saline 95 % of control | dose: 85.0 mg/kg/injection, schedule: Q01DX015 (ip), vehicle: saline 93 % of control

CCOP(=O)(OCC)C(=O)C1C(C=C(C)C)C1(C)C (stereo not given)
inactive: [11] 123 % of control | [12] 104 % of control | [13] 115 % of control

CC1(C)C2CCC1(C)C(NCc1cc(Cl)cc(Cl)c1O)C2 (stereo not given)
inactive: [4] 92 % of control | [6] 103 % of control | [7] 98 % of control

C/C(=N/Nc1ccccc1)c1ccccn1
inactive: [4] 98 % of control | [6] 96 % of control | [7] 98 % of control

CC1(CO)C2CCC(CC2)C1CO (stereo not given)
inactive: dose: 100.0 mg/kg/injection, schedule: Q04DX003 (ip), vehicle: acetone 98 % of control | dose: 200.0 mg/kg/injection, schedule: Q04DX003 (ip), vehicle: acetone 96 % of control | dose: 400.0 mg/kg/injection, schedule: Q04DX003 (ip), vehicle: acetone 93 % of control

COC1=CCC(OC)=C(C)C1
inactive: dose: 150.0 mg/kg/injection, schedule: Q01DX009 (ip), vehicle: saline 95 % of control | dose: 225.0 mg/kg/injection, schedule: Q01DX009 (ip), vehicle: saline 94 % of control

O=C(O)C[S+]1CCSCC1
inactive: [11] 105 % of control | [12] 105 % of control | [13] 105 % of control

CN(C)c1ccc2c(c1)/C(=N/O)c1ccccc1-2
inactive: [8] 103 % of control | [9] 105 % of control | [10] 100 % of control

Cn1cnc2ncnn2c1=S
inactive: [14] 114 % of control | [15] 103 % of control | dose: 200.0 mg/kg/injection, schedule: Q04DX003 (ip), vehicle: saline 105 % of control

Cc1ccc(OC(=O)NC(C)(C)C)cc1
inactive: dose: 100.0 mg/kg/injection, schedule: Q04DX002 (ip), vehicle: Klucel (hydroxypropylcellulose) (HPC) 105 % of control | dose: 200.0 mg/kg/injection, schedule: Q04DX002 (ip), vehicle: Klucel (hydroxypropylcellulose) (HPC) 109 % of control | dose: 400.0 mg/kg/injection, schedule: Q04DX002 (ip), vehicle: Klucel (hydroxypropylcellulose) (HPC) 105 % of control

c1c[nH]c(C2Nc3ccccc3S2)c1 (stereo not given)
inactive: [16] 93 % of control | [17] 95 % of control

CCOC(=O)CNC(=O)CNC(=O)CNC(=O)OCc1ccccc1 (Cbz-Gly-Gly-Gly-OEt)
inactive: [16] 93 % of control | [17] 88 % of control | dose: 400.0 mg/kg/injection, schedule: Q01DX001 (ip), vehicle: saline 94 % of control

Oc1cccnc1CN1CCCCC1
inactive: dose: 25.0 mg/kg/injection, schedule: Q01DX009 (ip), vehicle: saline 100 % of control | [14] 91 % of control | dose: 50.0 mg/kg/injection, schedule: Q04DX003 (ip), vehicle: saline 97 % of control | dose: 100.0 mg/kg/injection, schedule: Q01DX009 (ip), vehicle: saline 96 % of control | [15] 97 % of control

Cc1ccc(Cl)cc1NC(=O)OCCOc1ccccc1
inactive: dose: 50.0 mg/kg/injection, schedule: Q04DX003 (ip), vehicle: saline with Tween-80 104 % of control | dose: 100.0 mg/kg/injection, schedule: Q01DX001 (ip), vehicle: saline with Tween-80 93 % of control | [1] 95 % of control | [18] 112 % of control and 89 % of control | [19] 96 % of control and 91 % of control | dose: 200.0 mg/kg/injection, schedule: Q01DX001 (ip), vehicle: saline with Tween-80 91 % of control | [2] 103 % of control and 90 % of control | [20] 94 % of control | [21] 102 % of control | dose: 400.0 mg/kg/injection, schedule: Q01DX001 (ip), vehicle: saline with Tween-80 98 % of control | dose: 400.0 mg/kg/injection, schedule: Q01DX009 (ip), vehicle: saline with Tween-80 95 % of control and 103 % of control | dose: 400.0 mg/kg/injection, schedule: Q04DX002 (ip), vehicle: saline with Tween-80 94 % of control and 95 % of control | [22] 88 % of control and 92 % of control

C#CCOS(=O)OCCCCCCCCCC (stereo not given) (tested in a mixture with another compound)
inactive: [4] 105 % of control | [6] 91 % of control | [7] 94 % of control

CN(C)c1ccc(P(=O)(c2ccc(N(C)C)cc2)c2ccc(N(C)C)cc2)cc1.CN(C)c1ccc(P(=O)(c2ccc(N(C)C)cc2)c2ccc(N(C)C)cc2)cc1.[Cl][Sn]([Cl])([Cl])[Cl]
inactive: dose: 50.0 mg/kg/injection, schedule: Q01DX009 (ip), vehicle: Klucel (hydroxypropylcellulose) (HPC) 87 % of control | [3] 91 % of control | [5] 94 % of control

CC(C(O)c1ccccc1)[N+](=O)[O-] (stereo not given)
inactive: [19] 100 % of control | [21] 95 % of control | [22] 101 % of control

O=[N+]([O-])c1cc(/C=N\N=C\c2ccco2)ccc1Cl
inactive: dose: 5.0 mg/kg/injection, schedule: Q01DX001 (ip), vehicle: saline 100 % of control | dose: 10.0 mg/kg/injection, schedule: Q01DX001 (ip), vehicle: saline 98 % of control | dose: 20.0 mg/kg/injection, schedule: Q01DX001 (ip), vehicle: saline 96 % of control | dose: 40.0 mg/kg/injection, schedule: Q01DX001 (ip), vehicle: saline 88 % of control | dose: 80.0 mg/kg/injection, schedule: Q01DX001 (ip), vehicle: saline 88 % of control

Cc1c2oc3c(C)ccc(C(=O)OCCN4CCCCC4)c3nc-2c(C(=O)OCCN2CCCCC2)c(N)c1=O
inactive: [18] 113 % of control | [20] 98 % of control

C[CH2][Sn]([I])([CH2]C)[CH2]C
inactive: dose: 1.56 mg/kg/injection, schedule: Q01DX009 (ip), vehicle: saline 92 % of control | dose: 3.13 mg/kg/injection, schedule: Q01DX009 (ip), vehicle: saline 94 % of control | dose: 6.25 mg/kg/injection, schedule: Q01DX009 (ip), vehicle: saline 89 % of control | dose: 25.0 mg/kg/injection, schedule: Q04DX002 (ip), vehicle: gum acacia 87 % of control
